Patent US11807835B2, “Detergent compositions containing a stabilized enzyme by phosphonates” (ECOLAB USA INC., priority 2016, dated 2023)

Columns and labels:
[1] = tested on: enzyme (protease, amylase, lipase); assay: Overall effects of phosphonates on enzyme activity (Table 3); type: biochemical; conditions: overall effect of the phosphonate on enzyme activity in the detergent use solution
Method: (§1) The enzyme activities in the detergents with different phosphonate levels were tested at 4000 ppm in 5 grains per gallon (GPG) water at 120° F. with various time points collected up to 4 hours, after a use solution was generated from the detergent composition. During the tests, the samples at different time points were collected and immediately frozen in an acetone/dry ice bath and stored in −80° C. before the activity of the enzyme was evaluated. For the use of such an assay, t=0 min was the reference point for 100% enzyme activity.
(§2) Assays of enzyme activity in formulations (% retention) were conducted to simulate a presoak condition in a beaker using the chemistry, temperature, and pH conditions relevant to manual warewash or presoak applications. Enzyme activity is an indicator of the stability of the enzyme in the detergent, specifically in an aqueous use solution within a sump (which is under conditions of high pH, temperature and dilution).
The relative enzyme activities in a use solution of the tested detergent compositions containing a different phosphonate at different concentrations over a period time are listed in Table 4A-Table 4E, Table 5A-Table 5E, and Table 6A-Table 6F.

lipase = assay: Lipase activity retention in detergent use solution (4000 ppm, 5 GPG water; p-nitrophenyl valerate, TRIS buffer pH 8.0); type: biochemical; conditions: for Relative Lipase Enzyme Activity in a Use Solution: Table 6E, room temperature; for Relative Lipase Enzyme Activity in a Use Solution of the All Ash Detergent Composition: Table 6F, all ash formula, 120º F.; for Relative Lipase Enzyme Activity: base formula
Method: as §1, with “activities in the detergents with different phosphonate levels were tested at 4000 ppm in 5 grains per gallon (GPG) water at 120° F. with various time points” left out
as §2
Enzyme activity under presoak or manual warewash conditions was traced quantitatively using a standard protease assay. Samples were prepared under bench top conditions, whereby the use solution from a detergent composition or detergent was obtained and maintained at a presoak or manual warewash temperature in a stirring water bath. After the time course for assessing enzyme stability is initiated, aliquots were taken at various time points and flash-frozen. A time=0 sample was prepared for each series by dissolving the detergent formulation at room temperature, mixing thoroughly, and flash freezing. Samples were thawed and diluted as necessary in an assay buffer usually for use in the protease assay. A glycine buffer at pH 9.0 is used here. The assay monitored the direct reaction of the protease on a small, commercially available peptidyl substrate, with liberation of the product providing correlation to the active enzyme content. The product was detected using a plate reader with an appreciable dynamic range (upper absorbance limit of the instrument >3.5). Enzyme activity levels were assessed relative to a calibration curve with average values for replicate tests used to map protease stability under presoak or manual warewash use conditions. Enzyme retention at each time point was calculated as the % enzyme activity relative to the time=0 sample.
The analysis by lipase and amylase assay was conducted similarly, except with a different substrate and buffers. For lipase activity, the substrate is p-nitrophenyl valerate, and for amylase, the substrate is an ethylidene substrate (EPS). The buffer used in lipase assay is TRIS (Tris(hydroxymethyl)aminomethane) buffer at pH 8.0, and in amylase assay HEPES (4-(2-hydroxyethyl)-1-piperazineethanesulfonic acid) buffer at pH 8.0.

[2] = phosphonate 0.3 wt-%, time 0 min
[3] = phosphonate 0.3 wt-%, time 5 min
[4] = phosphonate 0.3 wt-%, time 10 min
[5] = phosphonate 0.3 wt-%, time 20 min
[6] = phosphonate 0.3 wt-%, time 40 min
[7] = phosphonate 0.3 wt-%, time 60 min
[8] = phosphonate 0.3 wt-%, time 90 min
[9] = phosphonate 0.3 wt-%, time 120 min
[10] = phosphonate 0.3 wt-%, time 150 min
[11] = phosphonate 0.3 wt-%, time 180 min
[12] = phosphonate 0.3 wt-%, time 210 min
[13] = phosphonate 0.3 wt-%, time 240 min

`CC(O)(P(=O)(O)O)P(=O)(O)O` [HEDP, 1-hydroxy ethylidene-1,1-diphosphonic acid] was tested, and the “Stability (effects on enzyme activity)” value [1] was “No”, the “Relative Lipase Enzyme Activity in a Use Solution” value (lipase; [2]) was 100.00% and the “Relative Lipase Enzyme Activity in a Use Solution” value (lipase; [3]) was 101.22%. For the same compound, the “Relative Lipase Enzyme Activity in a Use Solution” value (lipase; [4]) was 102.97%, the “Relative Lipase Enzyme Activity in a Use Solution” value (lipase; [5]) was 98.65% and the “Relative Lipase Enzyme Activity in a Use Solution” value (lipase; [6]) was 81.12%. For the same compound, the “Relative Lipase Enzyme Activity in a Use Solution” value (lipase; [7]) was 89.82%, the “Relative Lipase Enzyme Activity in a Use Solution” value (lipase; [8]) was 104.91% and the “Relative Lipase Enzyme Activity in a Use Solution” value (lipase; [9]) was 100.99%. The “Relative Lipase Enzyme Activity in a Use Solution” value (lipase; [10]) was 100.18%, the “Relative Lipase Enzyme Activity in a Use Solution” value (lipase; [11]) was 100.45% and the “Relative Lipase Enzyme Activity in a Use Solution” value (lipase; [12]) was 98.87%. The “Relative Lipase Enzyme Activity in a Use Solution” value (lipase; [13]) was 99.95%, the “Relative Lipase Enzyme Activity in a Use Solution of the All Ash Detergent Composition” value (lipase; [2]) was 100.00% and the “Relative Lipase Enzyme Activity in a Use Solution of the All Ash Detergent Composition” value (lipase; [3]) was 39.01%. The “Relative Lipase Enzyme Activity in a Use Solution of the All Ash Detergent Composition” value (lipase; [4]) was 21.35%, the “Relative Lipase Enzyme Activity in a Use Solution of the All Ash Detergent Composition” value (lipase; [5]) was 7.45% and the “Relative Lipase Enzyme Activity in a Use Solution of the All Ash Detergent Composition” value (lipase; [6]) was 0.88%. For the same compound, the “Relative Lipase Enzyme Activity in a Use Solution of the All Ash Detergent Composition” value (lipase; [7]) was −0.91%, the “Relative Lipase Enzyme Activity in a Use Solution of the All Ash Detergent Composition” value (lipase; [8]) was −1.68% and the “Relative Lipase Enzyme Activity in a Use Solution of the All Ash Detergent Composition” value (lipase; [9]) was −1.38%. The “Relative Lipase Enzyme Activity in a Use Solution of the All Ash Detergent Composition” value (lipase; [10]) was −1.94%, the “Relative Lipase Enzyme Activity in a Use Solution of the All Ash Detergent Composition” value (lipase; [11]) was −4.15% and the “Relative Lipase Enzyme Activity in a Use Solution of the All Ash Detergent Composition” value (lipase; [12]) was −4.41%. The “Relative Lipase Enzyme Activity in a Use Solution of the All Ash Detergent Composition” value (lipase; [13]) was −3.60%, the “Relative Lipase Enzyme Activity” value (lipase; phosphonate 0.3 wt-%, use solution at 120° F., time 0 min) was 100.00% and the “Relative Lipase Enzyme Activity” value (lipase; phosphonate 0.3 wt-%, use solution at 120° F., time 5 min) was 47.15%. The “Relative Lipase Enzyme Activity” value (lipase; phosphonate 0.3 wt-%, use solution at 120° F., time 10 min) was 44.35%, the “Relative Lipase Enzyme Activity” value (lipase; phosphonate 0.3 wt-%, use solution at 120° F., time 20 min) was 34.94% and the “Relative Lipase Enzyme Activity” value (lipase; phosphonate 0.3 wt-%, use solution at 120° F., time 40 min) was 23.40%. The “Relative Lipase Enzyme Activity” value (lipase; phosphonate 0.3 wt-%, use solution at 120° F., time 60 min) was 17.75%, the “Relative Lipase Enzyme Activity” value (lipase; phosphonate 0.3 wt-%, use solution at 120° F., time 90 min) was 11.06% and the “Relative Lipase Enzyme Activity” value (lipase; phosphonate 0.3 wt-%, use solution at 120° F., time 120 min) was 6.92%. The “Relative Lipase Enzyme Activity” value (lipase; phosphonate 0.3 wt-%, use solution at 120° F., time 150 min) was 5.38%, the “Relative Lipase Enzyme Activity” value (lipase; phosphonate 0.3 wt-%, use solution at 120° F., time 180 min) was 2.90% and the “Relative Lipase Enzyme Activity” value (lipase; phosphonate 0.3 wt-%, use solution at 120° F., time 210 min) was 2.62%. For the same compound, the “Relative Lipase Enzyme Activity” value (lipase; phosphonate 0.3 wt-%, use solution at 120° F., time 240 min) was 2.32%, the “Relative Lipase Enzyme Activity” value (lipase; phosphonate 0.6 wt-%, use solution at 120º F., time 0 min) was 100.00% and the “Relative Lipase Enzyme Activity” value (lipase; phosphonate 0.6 wt-%, use solution at 120º F., time 5 min) was 62.99%. For the same compound, the “Relative Lipase Enzyme Activity” value (lipase; phosphonate 0.6 wt-%, use solution at 120º F., time 10 min) was 59.92%, the “Relative Lipase Enzyme Activity” value (lipase; phosphonate 0.6 wt-%, use solution at 120º F., time 20 min) was 48.34% and the “Relative Lipase Enzyme Activity” value (lipase; phosphonate 0.6 wt-%, use solution at 120º F., time 40 min) was 33.30%. The “Relative Lipase Enzyme Activity” value (lipase; phosphonate 0.6 wt-%, use solution at 120º F., time 60 min) was 23.22%, the “Relative Lipase Enzyme Activity” value (lipase; phosphonate 0.6 wt-%, use solution at 120º F., time 90 min) was 17.91% and the “Relative Lipase Enzyme Activity” value (lipase; phosphonate 0.6 wt-%, use solution at 120º F., time 120 min) was 14.72%. For the same compound, the “Relative Lipase Enzyme Activity” value (lipase; phosphonate 0.6 wt-%, use solution at 120º F., time 150 min) was 12.63%, the “Relative Lipase Enzyme Activity” value (lipase; phosphonate 0.6 wt-%, use solution at 120º F., time 180 min) was 7.01% and the “Relative Lipase Enzyme Activity” value (lipase; phosphonate 0.6 wt-%, use solution at 120º F., time 210 min) was 8.08%. For the same compound, the “Relative Lipase Enzyme Activity” value (lipase; phosphonate 0.6 wt-%, use solution at 120º F., time 240 min) was 5.20%, the “Relative Lipase Enzyme Activity” value (lipase; phosphonate at 0.1% elemental phosphorus, at 120º F. or at room temperature (as titled), time 0 min) was 100.00% and the “Relative Lipase Enzyme Activity” value (lipase; phosphonate at 0.1% elemental phosphorus, at 120º F. or at room temperature (as titled), time 5 min) was 79.12%. For the same compound, the “Relative Lipase Enzyme Activity” value (lipase; phosphonate at 0.1% elemental phosphorus, at 120º F. or at room temperature (as titled), time 10 min) was 67.70% and the “Relative Lipase Enzyme Activity” value (lipase; phosphonate at 0.1% elemental phosphorus, at 120º F. or at room temperature (as titled), time 20 min) was 51.16%.
